Assay results taken from BigSolDB 2.1.

O=C(O)CCCCCCCCCCCC(=O)O
solubility (mole fraction)
Conditions | 283.15 K | 288.15 K | 293.15 K | 298.15 K | 303.15 K | 308.15 K | 313.15 K | 318.15 K | 323.15 K
in acetic acid | – | 0.00231 | 0.00309 | 0.00418 | 0.00656 | 0.00975 | 0.0138 | 0.0201 | 0.0253
in acetone | 0.00192 | 0.00207 | 0.00302 | 0.00409 | 0.00633 | 0.00892 | 0.0128 | 0.0166 | 0.0234
in ethanol | 0.00277 | 0.00286 | 0.00388 | 0.00441 | 0.00674 | 0.0115 | 0.0149 | 0.0207 | 0.0263
in ethyl acetate | 0.00072 | 0.00083 | 0.00111 | 0.00149 | 0.00254 | 0.00361 | 0.00524 | 0.00722 | 0.011
in methanol | 0.00291 | 0.00315 | 0.00388 | 0.00449 | 0.00541 | 0.00845 | 0.0106 | 0.0126 | 0.015
